ChEMBL document CHEMBL5365421, “Design, synthesis, antitumor activity, and molecular dynamics simulations of novel sphingosine kinase 2 inhibitors” (Bioorg Med Chem, 2023)

Key:
Sphingosine kinase 1 = Sphingosine kinase 1 (Homo sapiens, UniProt Q9NYA1); test: Inhibition of SphK1 (unknown origin) using D-Sph as substrate incubated for 40 mins by ADP-Glo Plus luminescence kinase assay
MGC-803 = test: Antiproliferative activity against human MGC-803 cells assessed as cell growth inhibition measured after 48 hrs by MTT assay; format: functional, cell-based; conditions: MGC-803, 48 h
U-937 = test: Antiproliferative activity against human U-937 cells assessed as cell growth inhibition measured after 48 hrs by MTT assay; format: functional, cell-based; conditions: U-937, 48 h
Sphingosine kinase 2 [1] = target: T1, Sphingosine kinase 2 (Homo sapiens, UniProt Q9NRA0); test: Inhibition of SphK2 (unknown origin) using NBD-Sph as substrate by fluorescent plate reader analysis
T1 sequence (Q9NRA0 whole entry): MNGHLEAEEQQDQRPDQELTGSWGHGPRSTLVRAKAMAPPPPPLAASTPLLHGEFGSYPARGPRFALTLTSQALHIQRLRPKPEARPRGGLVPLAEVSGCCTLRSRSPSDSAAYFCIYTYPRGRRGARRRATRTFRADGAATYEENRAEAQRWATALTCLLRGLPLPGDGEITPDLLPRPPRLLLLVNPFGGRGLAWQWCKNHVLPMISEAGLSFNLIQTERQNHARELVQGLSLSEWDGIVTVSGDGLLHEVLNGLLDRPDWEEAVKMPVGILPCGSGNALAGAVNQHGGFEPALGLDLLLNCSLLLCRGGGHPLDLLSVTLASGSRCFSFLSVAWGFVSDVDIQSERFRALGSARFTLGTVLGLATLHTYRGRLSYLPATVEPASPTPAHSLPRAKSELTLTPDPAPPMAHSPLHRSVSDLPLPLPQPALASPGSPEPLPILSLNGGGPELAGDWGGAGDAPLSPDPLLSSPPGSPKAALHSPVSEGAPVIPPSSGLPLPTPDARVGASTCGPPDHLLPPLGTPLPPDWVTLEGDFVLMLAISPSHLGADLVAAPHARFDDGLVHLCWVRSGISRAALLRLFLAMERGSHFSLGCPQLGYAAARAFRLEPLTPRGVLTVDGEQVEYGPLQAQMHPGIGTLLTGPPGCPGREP

MCF7 [2] = test: Antiproliferative activity against human MCF7 cells assessed as cell growth inhibition measured after 48 hrs by MTT assay; format: functional, cell-based; conditions: MCF7, 48 h
[3] = target: T2, Sphingosine kinase 2 (Homo sapiens) (UniProt Q9NRA0); test: Inhibition of SphK2 (unknown origin) using NBD-Sph as substrate at 10 uM by fluorescent plate reader analysis relative to control
T2 sequence (whole entry): T1 sequence (Q9NRA0 whole entry)

MCF7 [4] = test: Inhibition of cell migration in human MCF7 cells assessed as reduction in scratch healing rate measured after 24 to 48 hrs by microscopic analysis; format: functional, cell-based; conditions: dose 20-100 µM, time lower 24.0 hrs, time upper […]
Sphingosine kinase 2 [5] = target: T1, Sphingosine kinase 2; test: Inhibition of recombinant SphK2 (unknown origin) using sphingosine as substrate assessed as inhibition constant by Lineweaver-burk plot analysis

Sequence of Sphingosine kinase 1 (Q9NYA1 whole entry): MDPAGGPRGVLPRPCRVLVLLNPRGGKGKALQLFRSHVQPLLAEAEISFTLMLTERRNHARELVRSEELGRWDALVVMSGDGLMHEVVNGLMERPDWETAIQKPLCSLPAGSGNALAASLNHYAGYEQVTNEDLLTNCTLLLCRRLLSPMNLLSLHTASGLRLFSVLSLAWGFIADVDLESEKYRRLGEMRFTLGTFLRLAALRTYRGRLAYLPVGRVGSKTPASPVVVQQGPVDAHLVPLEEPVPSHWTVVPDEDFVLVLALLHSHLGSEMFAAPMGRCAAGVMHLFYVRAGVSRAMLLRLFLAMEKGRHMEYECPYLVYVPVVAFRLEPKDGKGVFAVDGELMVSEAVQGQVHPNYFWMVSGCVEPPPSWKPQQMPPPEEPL

| Structure (SMILES) | IC50 (Sphingosine kinase 1) [µM] | IC50 (MGC-803) [µM] | IC50 (U-937) [µM] | IC50 (Sphingosine kinase 2 [1]) [nM] | IC50 (MCF7 [2]) [µM] | inhibition [3] [%] | inhibition (MCF7 [4]) | Ki (Sphingosine kinase 2 [5]) [µM] |
| --- | --- | --- | --- | --- | --- | --- | --- | --- |
| NC(=O)[C@@H]1CCCN1C(=O)c1ccc(COc2cccc(OCc3ccccc3)c2)cc1 | 66.2 | 38.6 | > 100 | > 10000 | > 100 | – | – | – |
| NCCNC(=O)c1ccc(OCc2noc(-c3ccc(Cl)cc3)n2)cc1 | 1.47 | 42 | 31.4 | > 10000 | 54 | < 50 | – | – |
| NC(=O)[C@H]1CCCN1C(=O)c1ccc(OCc2noc(-c3ccc(C(F)(F)F)cc3)n2)cc1 | 21.9 | 19.2 | 25.6 | 2.4 | 24.4 | – | Dose-Dependent Effect | – |
| NC(=O)CNC(=O)c1ccc(COc2cccc(OCc3ccccc3)c2)cc1 | – | 33.8 | 32.7 | 11.5 | 20.3 | – | – | – |
| NC(=O)[C@H]1CCCN1C(=O)c1ccc(OCc2noc(-c3ccc(Cl)cc3)n2)cc1 | – | 20.2 | 47.8 | > 10000 | 7.63 | < 50 | – | – |
| O=C(NCCO)c1ccc(OCc2noc(-c3ccc(Cl)cc3)n2)cc1 | – | 37 | 20.1 | > 10000 | 55.2 | < 50 | – | – |
| O=C(NCCO)c1ccc(COc2cccc(OCc3ccccc3)c2)cc1 | 35.6 | 37.7 | 34.7 | 1250 | 34.7 | – | – | – |
| OC[C@@H]1CCCN1Cc1ccc(COc2cccc(OCc3ccccc3)c2)cc1 | 0.917 | 32.2 | 37.6 | 1.91 | > 100 | – | – | – |
| NC(=O)[C@H]1CCCN1Cc1ccc(COc2cccc(OCc3ccccc3)c2)cc1 | 0.924 | 65.2 | 41.5 | > 10000 | 18.3 | – | – | – |
| NC(=O)[C@@H]1CCCN1C(=O)c1ccc(OCc2noc(-c3ccc(C(F)(F)F)cc3)n2)cc1 | – | 22.9 | 25.6 | > 10000 | 12.8 | – | – | – |
| NCCNC(=O)c1ccc(COc2cccc(OCc3ccccc3)c2)cc1 | – | 25.1 | 51.4 | 41.6 | 53.5 | – | – | – |
| NC(=O)[C@@H]1CCCN1Cc1ccc(COc2cccc(OCc3ccccc3)c2)cc1 | – | 63.6 | 43.3 | > 10000 | 21.5 | – | – | – |
| O=C(c1ccc(OCc2noc(-c3ccc(C(F)(F)F)cc3)n2)cc1)N1CCC[C@H]1CO | – | 43 | 29.4 | 2460 | 51.9 | – | – | – |
| O=C(c1ccc(OCc2noc(-c3ccc(Cl)cc3)n2)cc1)N1CCC[C@@H]1CO | 7.76 | 40.3 | 2.95 | > 10000 | 45.3 | < 50 | – | – |
| CCCCCOc1ccc2cc(-c3noc([C@@H]4[C@@H](O)CCN4C(=N)N)n3)ccc2c1 | – | – | – | 4000 | – | – | – | – |
| O=C(c1ccc(COc2cccc(OCc3ccccc3)c2)cc1)N1CCC[C@@H]1CO | – | 61.8 | 69.5 | 1230 | 30.5 | – | – | – |
| NC(=O)CNCc1ccc(COc2cccc(OCc3ccccc3)c2)cc1 | 30.4 | 55.3 | > 82.3 | 46.2 | 42.7 | – | – | – |
| O=C(NCCO)c1ccc(OCc2noc(-c3ccc(C(F)(F)F)cc3)n2)cc1 | – | 26.1 | 68.9 | 35.8 | 58 | – | – | – |
| NCCNC(=O)c1ccc(OCc2noc(-c3ccc(C(F)(F)F)cc3)n2)cc1 | – | 40.8 | 32.9 | > 10000 | 39.6 | – | – | – |
| NC(=O)[C@@H]1CCCN1C(=O)c1ccc(OCc2noc(-c3ccc(Cl)cc3)n2)cc1 | – | 40.6 | 31.2 | > 10000 | > 100 | < 50 | – | – |
| NC(=O)CNC(=O)c1ccc(OCc2noc(-c3ccc(C(F)(F)F)cc3)n2)cc1 | – | 10.9 | 8.44 | > 10000 | 39.7 | – | – | – |
| CCCCOc1ccc(CC/C=C2\SC(=O)N(CCN)C2=O)cc1 | – | – | – | – | – | – | – | 6.5 |
| NC(=O)CNC(=O)c1ccc(OCc2noc(-c3ccc(Cl)cc3)n2)cc1 | – | 29.8 | 10 | > 10000 | 55.4 | < 50 | – | – |
| O=C(c1ccc(OCc2noc(-c3ccc(Cl)cc3)n2)cc1)N1CCC[C@H]1CO | 8.96 | 22.9 | 17.3 | > 10000 | 8.61 | < 50 | – | – |
| NC(=O)[C@H]1CCCN1C(=O)c1ccc(COc2cccc(OCc3ccccc3)c2)cc1 | – | > 81.5 | 45.6 | 960 | > 100 | – | – | – |
| O=C(c1ccc(COc2cccc(OCc3ccccc3)c2)cc1)N1CCC[C@H]1CO | – | > 79.8 | 29.9 | > 10000 | > 100 | < 50 | – | – |
| OCC1CCCN1Cc1ccc(COc2cccc(OCc3ccccc3)c2)cc1 (single isomer, unassigned) | 0.446 | 15.7 | > 80.2 | 11.5 | > 100 | – | – | – |
| O=C(c1ccc(OCc2noc(-c3ccc(C(F)(F)F)cc3)n2)cc1)N1CCC[C@@H]1CO | 17.7 | 35.9 | 51.1 | 3.43 | 21.1 | – | Dose-Dependent Effect | – |
